Consider twelve compounds from patent publication US12617769B2, “Chemical compound as thyroid hormone beta receptor agonist and use thereof” (SUNSHINE LAKE PHARMA CO., LTD., priority 2019, dated 2026).

Series [1] can be described thus: Pharmacokinetic determination in SD rats (plasma, LC/MS/MS). The settings on record: SD rat; for pharmacokinetic properties (in words): intravenous injection or oral gavage, compared to control MGL3196; for AUC(0-t) / Cmax / Tmax / half-life: male, plasma. In kind it is in vivo. The text has this:
Test purpose: The following method is used to determine the pharmacokinetics of the compounds of the present invention.
Experimental reagents and test compounds: Propranolol (internal standard), methanol, ammonium acetate, K2EDTA (potassium ethylenediamine tetraacetate), formic acid, acetonitrile, MTBE (methyl tert-butyl ether), KolliphorHS15 (polyethylene glycol 12 hydroxystearate), DMSO (dimethyl sulfoxide) are commercially available; • SD rat: male, 180-220 g, 7-8 weeks old, purchased from Hunan Slake Experimental Animal Co., Ltd. Test Method: 1. Preparation of Test Compounds
Each test compound prepared was completely dissolved in a mixture of 5% DMSO+5% KolliphorHS 15+90% Saline according solubility property thereof.
(1) Preparation of the test compound stock solution: an appropriate amount of test compound was precisely weighed, dissolved in DMSO, diluted to 1 mg/mL with acetonitrile, and shaken well to obtain the test compound stock solution, which was stored at −20° C. for use.
(2) Preparation of internal standard solution: a certain amount of 1 mg/mL Propranolol stock solution was precisely drawn and diluted to 100 ng/mL with water.
The liquid-liquid extraction method was used to process the samples for chromatographic separation. On a triple quadrupole tandem mass spectrometer, quantitative analysis was performed using multiple reactive ion monitoring (MRM), and the concentration were calculated using instrument quantitative software.
30 μL of plasma sample was accurately drawn, and added with 250 μL of internal standard. The mixture was mixed well by vortexing. The mixture was extracted once with 1 mL of MTBE, centrifuged at 13,000 rpm, 4° C. for 2 min, then 800 μL of supernatant was sucked, and evaporated in a 96-well nitrogen blower. The residue was re-dissolved with 150 μL of methanol/water (v/v=50/50), mixed by vortexing, and injected. The injection volume was 8 μL.
An appropriate amount of compound stock solution was accurately drawn, and diluted with acetonitrile to obtain standard series solution. 20 μL of each of the above standard series solutions was accurately drawn, added with 180 μL of blank plasma, and mixed well by vortexing to prepare plasma samples equivalent to plasma concentrations of 3, 5, 10, 30, 100, 300, 1,000, 3,000, 5,000, and 10,000 ng/mL, which were all processed according to “pretreatment of plasma samples”. Two samples were analyzed for each concentration to establish a standard curve.
The content of the test compound in the plasma of rats after administration of different compounds was determined by LC/MS/MS method.
Pharmacokinetic parameters were calculated using a noncompartmental method by WinNonLin 6.1 software.

Series [2] concerns the target T1, TRβ (Homo sapiens, UniProt P10828).
T1 construct: Then 5 μL of 4×TRα-LBD or TRP-LBD; purchased Invitrogen PV4686
T1 sequence (P10828 217-461 limits assumed): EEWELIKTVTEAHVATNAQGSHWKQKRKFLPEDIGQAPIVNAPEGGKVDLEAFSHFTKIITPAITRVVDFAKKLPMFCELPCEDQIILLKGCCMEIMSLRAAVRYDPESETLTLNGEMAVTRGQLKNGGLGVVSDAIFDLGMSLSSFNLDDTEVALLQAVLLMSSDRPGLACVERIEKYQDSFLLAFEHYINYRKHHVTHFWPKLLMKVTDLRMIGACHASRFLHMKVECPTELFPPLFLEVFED
Kind of series: In vitro binding activity, LanthaScreen TR-FRET Thyroid Receptor beta Coactivator Assay. The following applies: TRβ-LBD. On the procedure:
(§1) 2. Detection of TRα or TRβ Binding Activity In Vitro of the Compound of the Present Invention
(§2) • LanthaScreen TR-FRET Thyroid Receptor beta Coactivator Assay kit was purchased from Invitrogen, Cat. No. PV4686; • LanthaScreen TR-FRET Thyroid Receptor alfa Coactivator Assay kit was purchased from Invitrogen, Cat. No. PV4687. Test Method:
(§3) This method was tested using LanthaScreen TR-FRET Thyroid Receptor beta/alfa Coactivator Assay kit. The test compound was dissolved in DMSO and diluted three-fold to obtain a total of 10 concentrations, then the compounds were diluted into solutions containing 2% DMSO with TR-FRET Coregulator Buffer C in the kit. 10 μL of the compounds containing 2% DMSO were taken to a 384-well plate. Then 5 μL of 4×TRα-LBD or TRP-LBD and 5 μL of a mixture containing 0.4 μM fluorescein-SRC2-2 and 8 nM Tb anti-GST antibody were added to each well. After mixing well, the compounds were incubated at room temperature in the dark for 1 h. After 1 h, the fluorescence value (RFU) was read at 520 nm and 495 nm using PHERAstar FSX microplate reader from BMG LABTECH. The emission signal at 520 nm was divided by the emission signal at 495 nm to calculate the TR-FRET ratio.
In general terms: TR-FRET usually uses a lanthanide donor and a delayed reading to cut background.

In series [3] the target is T2, TRα (Homo sapiens, UniProt P10827).
T2 construct: Then 5 μL of 4×TRα-LBD or TRP-LBD; purchased Invitrogen PV4687
T2 sequence (P10827 163-410 isoform P10827-2 limits assumed, other chains not shown): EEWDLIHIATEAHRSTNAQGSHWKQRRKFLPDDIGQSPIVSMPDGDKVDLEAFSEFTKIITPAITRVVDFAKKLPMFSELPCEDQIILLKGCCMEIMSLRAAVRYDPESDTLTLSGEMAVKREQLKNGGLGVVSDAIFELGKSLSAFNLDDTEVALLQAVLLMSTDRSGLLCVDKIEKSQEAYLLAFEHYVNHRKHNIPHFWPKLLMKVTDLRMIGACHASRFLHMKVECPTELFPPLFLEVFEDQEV
The series can be described thus: In vitro binding activity, LanthaScreen TR-FRET Thyroid Receptor alfa Coactivator Assay. The following applies: TRα-LBD. On the procedure: as §1, §2, §3

Where only a bound is given, the exact number is not on record here.

Consider `COC(=O)c1nn(-c2cc(Cl)c(Oc3ccc(=O)n(Cc4ccccc4)c3)c(Cl)c2)c(=O)[nH]c1=O` [Example 16, Methyl 2-(4-((1-benzyl-6-oxo-1,6-dihydropyridin-3-yl)oxy)-3,5-dichlorophenyl)-3,5-dioxo-2,3,4,5-tetrahydro-1,2,4-triazine-6-carboxylate], for which the “pharmacokinetic properties (in words)” value in series [1] is given as “excellent pharmacokinetic properties”. In series [1] (po, ig, 5 mg/kg), the AUC(0-t) (usually the area under the concentration-time curve up to a stated or last time point) was 33.6 µg·h/mL, the peak level (Cmax) was 12.7 µg/mL, the time of peak concentration (Tmax) (usually the time at which the peak concentration occurs) was found to be 0.5 h and the half-life (commonly how long it takes for the measured level to halve) is 3.05 h. Also, in series [1] (iv, 1 mg/kg), the AUC(0-t) was 17.4 µg·h/mL; the Cmax (in general, the maximum level reached in the sampled fluid or tissue) was determined as 17.3 µg/mL; the Tmax was 0.083 h; the half-life is 4 h. Also, the EC50 (in general, the concentration needed to bring the measured effect to its halfway point) in series [2] worked out at 0.36 µM. Also, in series [3], it took 16.3 µM to reach a half-maximal effect (EC50).
As for `O=c1cnn(-c2cc(Cl)c(Oc3ccc(=O)n(Cc4ccccc4)c3)c(Cl)c2)c(=O)[nH]1` [Example 29, 2-(4-((1-benzyl-6-oxo-1,6-dihydropyridin-3-yl)oxy)-3,5-dichlorophenyl)-1,2,4-triazine-3,5-dione], the “pharmacokinetic properties (in words)” value in series [1] is “excellent pharmacokinetic properties”. Further, in series [1] (po, ig, 5 mg/kg), the AUC(0-t) was determined as 115 µg·h/mL, the highest level (Cmax) was 20 µg/mL, the Tmax was determined as 0.417 h and the half-life was 2.89 h. In series [1] (iv, 1 mg/kg), the AUC(0-t) was determined as 16.9 µg·h/mL, the highest concentration (Cmax) amounted to 8.92 µg/mL, the Tmax stood at 0.083 h and the half-life is 2.38 h. In addition, in series [2], the EC50 stood at 0.011 µM. For the same compound, in series [3], a half-maximal response (EC50) required 0.37 µM.
As for `CC(C)c1cc(Oc2c(Cl)cc(-n3nc(C#N)c(=O)[nH]c3=O)cc2Cl)n[nH]c1=O` [MGL3196, reference compound], in series [1] (po, ig, 5 mg/kg), the AUC(0-t) turned out to be 20.7 µg·h/mL, the concentration peaked (Cmax) at 2.61 µg/mL, the Tmax is 2 h and the half-life was 4.26 h. Further, in series [1] (iv, 1 mg/kg), the AUC(0-t) is 8.84 µg·h/mL, the Cmax worked out at 5.99 µg/mL, the Tmax came out at 0.083 h and the half-life was 2.74 h.
On to `N#Cc1nn(-c2cc(Cl)c(Oc3ccc(=O)n(Cc4ccc(F)cc4)c3)c(Cl)c2)c(=O)[nH]c1=O` [Example 13, 2-[3,5-dichloro-4-[[1-(4-fluorobenzyl)-6-oxo-1,6-dihydropyridin-3-yl]oxy]phenyl]-3,5-dioxo-1,2,4-triazine-6-carbonitrile], for which the EC50 in series [2] came to 0.02 µM; in series [3], 0.6 µM.
For the compound `N#Cc1nn(-c2cc(Cl)c(Oc3ccc(=O)n(Cc4ccc(F)c(F)c4)c3)c(Cl)c2)c(=O)[nH]c1=O` [Example 11, 2-[3,5-dichloro-4-[[1-(3,4-difluorobenzyl)-6-oxo-1,6-dihydropyridin-3-yl]oxy]phenyl]-3,5-dioxo-1,2,4-triazine-6-carbonitrile], the figures for the EC50 in series [2] and in series [3] were 0.022 µM and 0.67 µM, respectively.
For `NC(=O)c1nn(-c2cc(Cl)c(Oc3ccc(=O)n(Cc4ccccc4)c3)c(Cl)c2)c(=O)[nH]c1=O` [Example 30, 2-(4-((1-benzyl-6-oxo-1,6-dihydropyridin-3-yl)oxy)-3,5-dichlorophenyl)-3,5-dioxo-2,3,4,5-tetrahydro-1,2,4-triazine-6-carboxamide], the EC50 in series [2] is 3.76 µM; in series [3] it was greater than 100 µM.
For `CCOC(=O)c1nn(-c2cc(Cl)c(Oc3ccc(=O)n(Cc4ccccc4)c3)c(Cl)c2)c(=O)[nH]c1=O` [Example 27, Ethyl 2-(4-((1-benzyl-6-oxo-1,6-dihydropyridin-3-yl)oxy)-3,5-dichlorophenyl)-3,5-dioxo-1,2,4-triazine-6-carboxylate] the same measures were 1.49 µM and greater than 100 µM.
With `COCCn1cc(Oc2c(Cl)cc(-n3nc(C#N)c(=O)[nH]c3=O)cc2Cl)ccc1=O` [Example 18, 2-[3,5-dichloro-4-[[1-(2-methoxyethyl)-6-oxo-1,6-dihydropyridin-3-yl]oxy]phenyl]-3,5-dioxo-1,2,4-triazine-6-carbonitrile], the EC50 in series [2] was found to be 0.086 µM; in series [3] it was 1.35 µM.
Take `Cc1cc(-n2nc(C#N)c(=O)[nH]c2=O)cc(C)c1Oc1ccc(=O)n(Cc2ccccc2)c1` [Example 34, 2-(4-((1-benzyl-6-oxo-1,6-dihydropyridin-3-yl)oxy)-3,5-dimethylphenyl)-3,5-dioxo-2,3,4,5-tetrahydro-1,2,4-triazine-6-carbonitrile]: the EC50 in series [2] worked out at 0.367 µM; in series [3], 7.31 µM.
For `CCOC(=O)Cn1nc(Oc2c(Cl)cc(-n3nc(C#N)c(=O)[nH]c3=O)cc2Cl)ccc1=O` [Example 19, Ethyl 2-[3-[2,6-dichloro-4-(6-cyano-3,5-dioxo-1,2,4-triazin-2-yl)phenoxy]-6-oxy-pyridazine-1(6H)-yl] acetate] the same measures were greater than 10 µM and greater than 100 µM.
Take `COc1cccc(Cn2cc(Oc3c(Cl)cc(-n4nc(C#N)c(=O)[nH]c4=O)cc3Cl)ccc2=O)c1` [Example 22, 2-[3,5-dichloro-4-[[1-[(3-methoxyphenyl)methyl]-6-oxopyridin-3-yl]oxy]phenyl]-3,5-dioxo-1,2,4-triazine-6-carbonitrile]: the results for the EC50 in series [2] and in series [3] were 0.69 µM and greater than 100 µM, respectively.
On to `N#Cc1nn(-c2cc(Cl)c(Oc3ccc(=O)n(CCO)c3)c(Cl)c2)c(=O)[nH]c1=O` [Example 32, 2-(3,5-dichloro-4-((1-(2-hydroxyethyl)-6-oxo-1,6-dihydropyridin-3-yl)oxy)phenyl)-3,5-dioxo-2,3,4,5-tetrahydro-1,2,4-triazine-6-carbonitrile], for which the 50% effective concentration (EC50) in series [2] was determined as 1.52 µM; in series [3] it was 22.7 µM.
